The target of assay [1] is human neurokinin NK1 receptors (Homo sapiens, UniProt P25103). Description: NK1-mediated PI hydrolysis measured with Zr4+-SPA beads (IMAC-SPA). The class given is cell-based.
Method: CHO cells stably expressing human neurokiuin NK1 receptors were maintained in 5% CO2 and at 37° C. in Ham's F12 medium supplemented with 10% fetal bovine serum (FBS) and 0.5 mg/ml G418. For experiments, the cells were plated onto 96-well plates in inositol-free DMEM medium containing 10% FBS and 5 μCi/ml [3 H]inositol (0.5 μCi/well). After 16-48 hr incubation, the medium was removed and the cells were incubated for 15 min with or without NK1 antagonist in phosphate-free lithium-containing Hanks solution (PFLH) (composition: 20 mM HEPES, pH 7.4, 1.25 mM MgCl2, 1.25 mM CaCl2, 5 mM KCl, 125 mM NaCl, 10 mM LiCl and 10 mM glucose). […] At the end of the incubation, the agonist solution was removed and 100 μl ice-cold 20 mM formic acid solution (pH3.0) containing 2 mM myo-inositol was added in each well to release inositol phosphates from the cells. After incubation at 4° C. for over 10 min, the samples were transferred to a white opaque plate, and 100 μl of metal ion loaded IMAC-SPA beads added to each well. Alternatively, IMAC-SPA beads could be added directly to the cell plate to eliminate the sample transfer step. The amount of [^3H] inositol phosphates generated in the cells was then determined by measurement of the radioactivity on the SPA beads on TopCount® NXT®. […]
For assay [2], the system named is PDGF receptor. Briefly: PDGF receptor-mediated PI hydrolysis in quiescent Swiss 3T3 cells measured with Zr4+-SPA beads. The class given is cell-based. As to the method:
Swiss 3 T 3 cells were maintained in DMEM medium supplemented with 10% heat-inactivated calf serum. For PI hydrolysis assay, the cells were grown in 96-well plates in [^3H]inositol-containing medium for 16-48 hr, then deprived of serum for 24 hr. The cells were stimulated with PDGF-BB for 45-60 min and the inositol phosphate accumulated in the cells was measured by IMAC-SPA in the same way as described for NK1 receptors.
The PDGF receptor belongs to the superfamily of tyrosine kinase-linked growth factor receptors. Stimulation of the PDGF receptor leads to activation of PLC-y through Ras-related GTPase (Ji et al., 1999, Mol. Cell. Biol., 1999. 19:49614970; Wang et al., 1998, Mol. Cell. Biol., 18:590-597; Heldin et al., 1998, Biochim. Biophys. Acta, 1378:F79-113; Stice et al., 1999, Front. Biosci., 4:D72-86).

Chain of human neurokinin NK1 receptors (P25103 whole entry): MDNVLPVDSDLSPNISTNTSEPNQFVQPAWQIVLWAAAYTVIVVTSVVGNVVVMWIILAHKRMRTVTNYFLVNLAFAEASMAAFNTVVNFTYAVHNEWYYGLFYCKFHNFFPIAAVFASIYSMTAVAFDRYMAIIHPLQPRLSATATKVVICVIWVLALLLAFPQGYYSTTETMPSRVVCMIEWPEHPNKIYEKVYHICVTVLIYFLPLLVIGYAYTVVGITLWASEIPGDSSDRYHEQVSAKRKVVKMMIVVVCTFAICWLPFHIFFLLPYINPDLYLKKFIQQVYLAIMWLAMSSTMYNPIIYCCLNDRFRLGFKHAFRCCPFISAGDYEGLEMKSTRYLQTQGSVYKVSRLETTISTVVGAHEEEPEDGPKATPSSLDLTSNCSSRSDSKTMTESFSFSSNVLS

On to `FC(F)(F)c1cc(CO[C@H]2CCCN[C@H]2c2ccccc2)cc(C(F)(F)F)c1` [L-733060], for which the “inhibition of PI hydrolysis induced by Substance P (mode)” value in assay [1] (NK1 CHO cells, shifted the concentration-response curve to the right) was “inhibited competitively”. For “PDGF-BB: Human recombinant platelet-derived growth factor (PDGF-BB) from Calbiochem”, in assay [2], the “EC50 of stimulation of PI hydrolysis” value came to 3.0 ng/mL and the “maximal increase in inositol phosphate production” value is 5 fold. On to Substance P, for which, in assay [1] (0.1 μM, CHO cells expressing NK1 receptor, Zr4+-loaded SPA beads, saline control), the “increase in signal ([3H]inositol phosphate) over the control” value is reported as 12 fold.

The record behind these values is patent US20060115863A1, “Inositol phosphate detection assays” (AstraZeneca AB, priority 2002, published 2006).
